Assay results reported in PMC6572064, “Discovery of 2-(1-(3-(4-Chloroxyphenyl)-3-oxo- propyl)pyrrolidine-3-yl)-1H-benzo[d]imidazole-4-carboxamide: A Potent Poly(ADP-ribose) Polymerase (PARP) Inhibitor for Treatment of Cancer” (Molecules, 2019).
Read-outs that look alike come from different tables or passages of the source.

Columns and labels:
PARP-1 = biological target: T1, PARP-1 (Homo sapiens, UniProt P09874); assay: PARP-1 inhibition assay (PARP-1 Chemiluminescent Assay Kit, BPS Bioscience); type: biochemical
T1 construct: purchased BPS Bioscience 80569
Method: (§1) The PARP-1 and PARP-2 inhibition assays were performed in outsourcing, by a CRO company, Shanghai Medicilon Inc. (Shanghai, China). […] Briefly, PARP-1 or PARP-2 biotinylated substrate was incubated with compounds or solvent control at varying concentrations and an assay buffer containing the PARP-1 or PARP-2 enzyme.

[1] = tested on: MDA-MB-436 (a BRCA-1-mutated breast cancer cell line); assay: Cell proliferation assay, three-day, CellTiter-Glo, MDA-MB-436; type: cell-based; conditions: Homo sapiens; for inhibition at 0.00508 µM: MDA-MB-436, MDA-MB-436, Conc. 0.00508 uM; for inhibition at 0.0152 µM: MDA-MB-436, MDA-MB-436, Conc. 0.0152 uM; for inhibition at 0.0457 µM: MDA-MB-436, MDA-MB-436, Conc. 0.0457 uM; for inhibition at 0.41 µM: MDA-MB-436, MDA-MB-436, Conc. 0.41 uM; for inhibition at 1.23 µM: MDA-MB-436, MDA-MB-436, Conc. 1.23 uM; for inhibition at 3.7 µM: MDA-MB-436, MDA-MB-436, Conc. 3.70 uM; for inhibition at 11.11 µM: MDA-MB-436, MDA-MB-436, Conc. 11.11 uM; for inhibition at 33.33 µM: MDA-MB-436, MDA-MB-436, Conc. 33.33 uM; for inhibition at 100 µM: MDA-MB-436, MDA-MB-436, Conc. 100.00 uM; for IC50: MDA-MB-436, 72 h, CellTiter-Glo, read-out: MDA-MB-436 IC50
Procedure, shortened: (§2)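 Cells seeded overnight in 384-well plates, then exposed to compounds (DMSO stock diluted in medium) for 72 h at 37 °C, 5% CO2. Viability read as CellTiter-Glo luminescence after 60 min at room temperature.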

[2] = tested on: CAPAN-1 (a BRCA-2-mutated pancreatic cancer cell line); assay: Cell proliferation assay, three-day, CellTiter-Glo, CAPAN-1; type: cell-based; conditions: for IC50 / inhibition at 0.00508 µM / inhibition at 0.0152 µM / inhibition at 0.0457 µM / inhibition at […] / inhibition at 0.41 µM / inhibition at 1.23 µM / inhibition at 3.7 µM / inhibition at 11.11 µM / inhibition at 33.33 µM / inhibition at 100 µM: Homo sapiens; for IC50: CAPAN-1, read-out: CAPAN-1 IC50; for inhibition at 0.00508 µM: CAPAN-1, Conc. 0.00508 uM; for inhibition at 0.0152 µM: CAPAN-1, Conc. 0.0152 uM; for inhibition at 0.0457 µM: CAPAN-1, Conc. 0.0457 uM; for inhibition at […]: CAPAN-1, Conc. 0.14 uM; for inhibition at 0.41 µM: CAPAN-1, Conc. 0.41 uM; for inhibition at 1.23 µM: CAPAN-1, Conc. 1.23 uM; for inhibition at 3.7 µM: CAPAN-1, Conc. 3.70 uM; for inhibition at 11.11 µM: CAPAN-1, Conc. 11.11 uM; for inhibition at 33.33 µM: CAPAN-1, Conc. 33.33 uM; for inhibition at 100 µM: CAPAN-1, Conc. 100.00 uM
Procedure, shortened: as §2

PARP-2 = biological target: T2, PARP-2 (Homo sapiens, UniProt Q9UGN5); assay: PARP-2 inhibition assay (PARP-2 Chemiluminescent Assay Kit, BPS Bioscience); type: biochemical
T2 construct: purchased BPS Bioscience 80552
Method: as §1

T1 sequence (P09874 whole entry): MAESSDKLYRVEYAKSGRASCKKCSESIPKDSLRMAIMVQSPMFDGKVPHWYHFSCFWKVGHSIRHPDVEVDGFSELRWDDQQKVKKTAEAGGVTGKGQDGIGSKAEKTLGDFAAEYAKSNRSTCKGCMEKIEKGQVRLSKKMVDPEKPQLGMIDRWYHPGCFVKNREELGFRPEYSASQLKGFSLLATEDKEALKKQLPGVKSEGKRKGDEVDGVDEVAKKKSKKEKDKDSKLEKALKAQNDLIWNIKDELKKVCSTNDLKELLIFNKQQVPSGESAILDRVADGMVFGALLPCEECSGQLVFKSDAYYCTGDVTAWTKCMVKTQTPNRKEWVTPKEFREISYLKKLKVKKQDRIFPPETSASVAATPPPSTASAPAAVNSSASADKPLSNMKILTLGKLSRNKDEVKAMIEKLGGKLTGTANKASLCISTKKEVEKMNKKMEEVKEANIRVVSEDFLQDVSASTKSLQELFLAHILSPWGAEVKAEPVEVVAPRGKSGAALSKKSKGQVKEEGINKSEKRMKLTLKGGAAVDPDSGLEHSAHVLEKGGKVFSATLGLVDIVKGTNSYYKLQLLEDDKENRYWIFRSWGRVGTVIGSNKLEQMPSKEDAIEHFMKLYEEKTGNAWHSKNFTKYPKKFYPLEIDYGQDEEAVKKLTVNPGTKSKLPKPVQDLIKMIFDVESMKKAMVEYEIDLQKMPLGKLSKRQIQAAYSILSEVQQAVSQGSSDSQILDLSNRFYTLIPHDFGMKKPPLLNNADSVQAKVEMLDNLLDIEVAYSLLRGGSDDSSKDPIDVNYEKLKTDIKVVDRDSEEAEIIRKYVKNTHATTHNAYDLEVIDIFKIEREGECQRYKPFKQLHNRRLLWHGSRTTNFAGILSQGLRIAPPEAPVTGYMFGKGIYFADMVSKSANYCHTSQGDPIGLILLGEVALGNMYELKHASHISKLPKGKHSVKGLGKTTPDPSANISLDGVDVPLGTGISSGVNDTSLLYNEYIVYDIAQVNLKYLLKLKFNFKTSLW
T2 sequence (Q9UGN5 whole entry): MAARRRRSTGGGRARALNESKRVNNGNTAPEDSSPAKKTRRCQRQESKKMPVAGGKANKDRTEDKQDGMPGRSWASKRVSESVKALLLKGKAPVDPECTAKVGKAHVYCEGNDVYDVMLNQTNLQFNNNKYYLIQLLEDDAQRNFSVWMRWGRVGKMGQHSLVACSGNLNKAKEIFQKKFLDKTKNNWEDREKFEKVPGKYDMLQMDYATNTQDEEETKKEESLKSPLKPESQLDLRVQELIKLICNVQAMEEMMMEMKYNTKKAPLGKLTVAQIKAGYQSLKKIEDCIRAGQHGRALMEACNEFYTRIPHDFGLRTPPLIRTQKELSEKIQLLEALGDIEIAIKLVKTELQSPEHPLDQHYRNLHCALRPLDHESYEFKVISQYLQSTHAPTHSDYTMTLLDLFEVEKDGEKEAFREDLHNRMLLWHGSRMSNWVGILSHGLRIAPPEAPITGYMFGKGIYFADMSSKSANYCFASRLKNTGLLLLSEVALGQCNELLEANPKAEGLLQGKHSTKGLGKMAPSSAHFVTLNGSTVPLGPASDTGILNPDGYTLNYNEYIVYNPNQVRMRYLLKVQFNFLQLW

Work on `NC(=O)c1cccc2[nH]c(C3CCN(CCNC(=O)c4ccccc4)C3)nc12` (stereo not drawn) [Compound 5co, 2-(1-(2-Benzamidoethyl)pyrrolidin-3-yl)-1H-benzo[d]imidazole-4-carboxamide] yielded an inhibition at 0.01 µM (PARP-1; 10 nM compound, supplement sheet, read-out: 10 nM inhibition% PAPR-1) of 38.4%, an inhibition at 0.01 µM (PARP-1; 10 nM compound, read-out: PARP-1 Inhibition % (10 nM)) of 38.4% and an IC50 (PARP-1; read-out: PARP-1 IC50) of 11.1 nM. For the same compound, the inhibition at 0.00508 µM ([1]; replicate 1, read-out: Inh % 1) was 0.116%, the inhibition at 0.00508 µM ([1]; replicate 2, read-out: Inh % 2) was -6.8% and the inhibition at 0.0152 µM ([1]; replicate 1, read-out: Inh % 1) was 3.3%. For the same compound, the inhibition at 0.0152 µM ([1]; replicate 2, read-out: Inh % 2) was -2.8%, the inhibition at 0.0457 µM ([1]; replicate 1, read-out: Inh % 1) was -7.2% and the inhibition at 0.0457 µM ([1]; replicate 2, read-out: Inh % 2) was -12.8%. It also gave an inhibition at 0.41 µM ([1]; replicate 1, read-out: Inh % 1) of -3.1%, an inhibition at 0.41 µM ([1]; replicate 2, read-out: Inh % 2) of -1.7% and an inhibition at 1.23 µM ([1]; replicate 1, read-out: Inh % 1) of 5.2%. The inhibition at 1.23 µM ([1]; replicate 2, read-out: Inh % 2) was -9.2%, the inhibition at 3.7 µM ([1]; replicate 1, read-out: Inh % 1) was -2% and the inhibition at 3.7 µM ([1]; replicate 2, read-out: Inh % 2) was -0.8%. The inhibition at 11.11 µM ([1]; replicate 1, read-out: Inh % 1) was 2.4%, the inhibition at 11.11 µM ([1]; replicate 2, read-out: Inh % 2) was -2.7% and the inhibition at 33.33 µM ([1]; replicate 1, read-out: Inh % 1) was 15.5%. For the same compound, the inhibition at 33.33 µM ([1]; replicate 2, read-out: Inh % 2) was 10.6%, the inhibition at 100 µM ([1]; replicate 1, read-out: Inh % 1) was 25.7% and the inhibition at 100 µM ([1]; replicate 2, read-out: Inh % 2) was 18.3%. For the same compound, the IC50 [1] was > 100000 nM, the IC50 ([2]; 72 h, CellTiter-Glo) was > 100000 nM and the inhibition at 0.00508 µM ([2]; replicate 1, read-out: Inh % 1) was -4.9%. The inhibition at 0.00508 µM ([2]; replicate 2, read-out: Inh % 2) was -7.9%, the inhibition at 0.0152 µM ([2]; replicate 1, read-out: Inh % 1) was 7.4% and the inhibition at 0.0152 µM ([2]; replicate 2, read-out: Inh % 2) was -1.7%. The inhibition at 0.0457 µM ([2]; replicate 1, read-out: Inh % 1) was 10.8%, the inhibition at 0.0457 µM ([2]; replicate 2, read-out: Inh % 2) was 10.6% and the inhibition at […] ([2]; replicate 1, read-out: Inh % 1) was 5.7%. It also gave an inhibition at […] ([2]; replicate 2, read-out: Inh % 2) of 0.8%, an inhibition at 0.41 µM ([2]; replicate 1, read-out: Inh % 1) of 7.1% and an inhibition at 0.41 µM ([2]; replicate 2, read-out: Inh % 2) of 6.9%. The inhibition at 1.23 µM ([2]; replicate 1, read-out: Inh % 1) was 9.2%, the inhibition at 1.23 µM ([2]; replicate 2, read-out: Inh % 2) was 5% and the inhibition at 3.7 µM ([2]; replicate 1, read-out: Inh % 1) was 25%. It also gave an inhibition at 3.7 µM ([2]; replicate 2, read-out: Inh % 2) of 11.1%, an inhibition at 11.11 µM ([2]; replicate 1, read-out: Inh % 1) of 17.9% and an inhibition at 11.11 µM ([2]; replicate 2, read-out: Inh % 2) of -1.4%. It also gave an inhibition at 33.33 µM ([2]; replicate 1, read-out: Inh % 1) of 16%, an inhibition at 33.33 µM ([2]; replicate 2, read-out: Inh % 2) of 13.7% and an inhibition at 100 µM ([2]; replicate 1, read-out: Inh % 1) of 29.2%. The inhibition at 100 µM ([2]; replicate 2, read-out: Inh % 2) was 25.9%, the inhibition at 0.01 µM (PARP-2; 10 nM compound, supplement sheet, read-out: 10 nM inhibition% PAPR-2) was 66.2% and the inhibition at 0.01 µM (PARP-2; 10 nM compound, read-out: PARP-2 Inhibition % (10 nM)) was 66.2%. It also gave an IC50 (PARP-2; read-out: PARP-2 IC50) of 5.7 nM and an IC50 (PARP-2; supplement sheet, read-out: IC50 PAPR-2) of 5.67 nM.

In the case of `C[C@]1(c2nc3c(C(N)=O)cccc3[nH]2)CCCN1` [pc1, Veliparib, reference compound], the inhibition at 0.01 µM (PARP-1; read-out: 10 nM inhibition% PAPR-1) is reported as 54.3%, the inhibition at 0.01 µM (PARP-1; read-out: PARP-1 Inhibition % (10 nM)) is reported as 63.7% and the inhibition at 0.00508 µM ([1]; replicate 1, read-out: Inh % 1) is reported as 0.064%. For the same compound, the inhibition at 0.00508 µM ([1]; replicate 2, read-out: Inh % 2) was -7.5%, the inhibition at 0.0152 µM ([1]; replicate 1, read-out: Inh % 1) was -2.6% and the inhibition at 0.0152 µM ([1]; replicate 2, read-out: Inh % 2) was -6.6%. The inhibition at 0.0457 µM ([1]; replicate 1, read-out: Inh % 1) was -7.5%, the inhibition at 0.0457 µM ([1]; replicate 2, read-out: Inh % 2) was -6.4% and the inhibition at 0.41 µM ([1]; replicate 1, read-out: Inh % 1) was -3.2%. It also gave an inhibition at 0.41 µM ([1]; replicate 2, read-out: Inh % 2) of -9.9%, an inhibition at 1.23 µM ([1]; replicate 1, read-out: Inh % 1) of -5.4% and an inhibition at 1.23 µM ([1]; replicate 2, read-out: Inh % 2) of -2.1%. For the same compound, the inhibition at 3.7 µM ([1]; replicate 1, read-out: Inh % 1) was -2.1%, the inhibition at 3.7 µM ([1]; replicate 2, read-out: Inh % 2) was 2.6% and the inhibition at 11.11 µM ([1]; replicate 1, read-out: Inh % 1) was 3.2%. The inhibition at 11.11 µM ([1]; replicate 2, read-out: Inh % 2) was 2.2%, the inhibition at 33.33 µM ([1]; replicate 1, read-out: Inh % 1) was 11.6% and the inhibition at 33.33 µM ([1]; replicate 2, read-out: Inh % 2) was 7.4%. The inhibition at 100 µM ([1]; replicate 1, read-out: Inh % 1) was 34.3%, the inhibition at 100 µM ([1]; replicate 2, read-out: Inh % 2) was 20.3% and the IC50 [1] was > 100000 nM. The “CAPAN-1 IC50 (μM)” value ([2]; 72 h, CellTiter-Glo) was “low potency”, the LogIC50 ([2]; CAPAN-1, curve-fit output, concentration axis Log (uM)) was 2.067 and the IC50 ([2]; 72 h, CellTiter-Glo) was > 100000 nM. The inhibition at 0.00508 µM ([2]; replicate 1, read-out: Inh % 1) was -10.6%, the inhibition at 0.00508 µM ([2]; replicate 2, read-out: Inh % 2) was 3.8% and the inhibition at 0.0152 µM ([2]; replicate 1, read-out: Inh % 1) was -2.1%. For the same compound, the inhibition at 0.0152 µM ([2]; replicate 2, read-out: Inh % 2) was -6.9%, the inhibition at 0.0457 µM ([2]; replicate 1, read-out: Inh % 1) was -0.346% and the inhibition at 0.0457 µM ([2]; replicate 2, read-out: Inh % 2) was 3%. For the same compound, the inhibition at […] ([2]; replicate 1, read-out: Inh % 1) was 9.5%, the inhibition at […] ([2]; replicate 2, read-out: Inh % 2) was 7.1% and the inhibition at 0.41 µM ([2]; replicate 1, read-out: Inh % 1) was 7.8%. It also gave an inhibition at 0.41 µM ([2]; replicate 2, read-out: Inh % 2) of -1.8%, an inhibition at 1.23 µM ([2]; replicate 1, read-out: Inh % 1) of -10.7% and an inhibition at 1.23 µM ([2]; replicate 2, read-out: Inh % 2) of -7.2%. It also gave an inhibition at 3.7 µM ([2]; replicate 1, read-out: Inh % 1) of -17.8%, an inhibition at 3.7 µM ([2]; replicate 2, read-out: Inh % 2) of -16.7% and an inhibition at 11.11 µM ([2]; replicate 1, read-out: Inh % 1) of 5%. The inhibition at 11.11 µM ([2]; replicate 2, read-out: Inh % 2) was 7.2%, the inhibition at 33.33 µM ([2]; replicate 1, read-out: Inh % 1) was 12.5% and the inhibition at 33.33 µM ([2]; replicate 2, read-out: Inh % 2) was 11.9%. For the same compound, the inhibition at 100 µM ([2]; replicate 1, read-out: Inh % 1) was 43.2%, the inhibition at 100 µM ([2]; replicate 2, read-out: Inh % 2) was 42.4% and the inhibition at 0.01 µM (PARP-2; read-out: 10 nM inhibition% PAPR-2) was 78.3%. For the same compound, the inhibition at 0.01 µM (PARP-2; read-out: PARP-2 Inhibition % (10 nM)) was 78.3%.
